Reference: patent publication US20090179638A1, “ASSAY FOR IDENTIFYING INHIBITORS OF NEURONAL APOPTOTIC PATHWAYS” (AEGERA THERAPEUTICS INC., priority 2006, published 2009)

Tests used:
JNK [1] = assay: Endogenous phosphorylation of GST-c-Jun in PC12rtTA cells; format: cell-based; conditions: for expression of the GST-c-Jun fusion construct: PC12rtTA cells
Protocol: FIGS. 7A, 7B and 7C are photographs of Western blots which illustrate that compound 1 analogues inhibit JNK activation and induce expression of HSP70. A: PC12^rtTA cells were transfected with RNAi directed against HSP70 or with control RNA and then 24 hours later were infected with 5 MOI of AdNRG or 50 MOI of the control virus AdLacZ. At time of infection, the cells were treated with 40 μM compound 2 or with a vehicle control, as indicated. After 30 hours, cells were lysed, normalized for protein levels, and analyzed for phosphorylated Jun, HSP70, HSP25 NRAGE and actin levels. B: PC12^rtTA cells were transfected with an expression construct driving GST-Jun. After 24 hours, cells were infected with 5 MOI of AdNRG or 50 MOI of the control virus AdLacZ or were left uninfected. After a further 24 hours, uninfected cells were left untreated or were exposed to 10 ng/ml TNF or 300 mM sorbitol for 15 minutes. Cells were then lysed, normalized for protein levels, and GST-jun was recovered by glutathione pullout and analyzed for phosphorylation using a antibody directed against c-Jun pSer63 by immunoblotting. Equivalent pullout of GST-Jun was confirmed by immunoblotting with an antibody directed against c-Jun and GST. C: PC12^rtTA cells were co-transfected with an expression construct driving GST-Jun and with RNAi directed against HSP70 or with control RNA, as indicated. After 24 hours, cells were infected with 5 MOI of AdNRG or 50 MOI of the control virus AdLacZ. At time of infection, the cells were treated with 40 μM compound 2 or with a vehicle control, as indicated. After 30 hours, cells were lysed, normalized for protein levels, and GST-jun was recovered by glutathione pullout and analyzed for phosphorylation using an antibody directed against c-Jun pSer63 by immunoblotting. Equivalent pullout of GST-Jun was confirmed by immunoblotting with an antibody directed against total Jun. Lysates levels of HSP70, HSP25, HSP40, NRAGE and actin was determined by immunoblot. […]
A causal link between HSP70 induction and JNK suppression, circumventing the problem of low-transfection efficiency of the PC12rtTA cells, was developed to assess JNK pathway activation specifically in the RNAi transfected subpopulation of PC12rtTA cells. […] We anticipated that the GST-c-Jun fusion protein would be readily recoverable from lysates and its phosphostatus would provide a sensitive read-out that reflects the level of JNK pathway activation in the subpopulation of cells which were transfected. […] GST-c-Jun was then recovered from lysates and its phosphostatus determined by immunoblotting. […] Thus, the phosphostatus of the GST-jun fusion protein provided a sensitive read-out that reflects the level of JNK pathway activation in transfected cells. […]

HSP70, HSP25, HSP90 mRNA = assay: semi-quantitative rtPCR of HSP mRNA in PC12 cells; format: cell-based, rat; conditions: 18 hours
Protocol: FIGS. 4A-4C are photographs of Western blots which illustrate that compound 1 treatment of PC12 cells induces expression of HSP70. A: PC12 cells were infected with 5 MOI of AdNRG (NRG) or AdLacZ (LacZ) as indicated. Cells were left untreated (0) or treated with 40 μM compound 1 at time of infection (30), one hour before lysis (1), or at both times (30+1). Cells were lysed thirty hours after infection, normalized for protein content, and analyzed for levels of phospho-Ser^63 c-Jun and total c-Jun, total JNK, IkBα, and NRAGE by immunoblotting. Lysates from untreated cells are indicated by ‘−’. B: PC12 cells were treated with the indicated concentrations of compound 1 for 18 hours and then lysed, normalized for protein content, and analyzed for levels of HSP70 by immunoblotting. Lysates from untreated cells are indicated by ‘−’. C: RNA isolated from PC12^rtTA cells treated with increasing concentrations of compound 1 for 18 hours was analyzed by rtPCR using primers specific to HSP70, HSP25, HSP90 or actin, as indicated. […] Thirty hours after infection, cells were lysed, normalized for protein content, and analyzed for levels of c-Jun phosphorylation, HSP70, HSP25, HSP40, NRAGE, p75NTR, JNK-1 and IkBα, as indicated.
To address this, SCG neurons were treated with compound 1 for 18 hours then lysed and assessed for HSP70 levels by immunoblot. […]

JNK [2] = assay: JNK activity in vitro; format: biochemical; conditions: data not shown

SMILES	ability to block GST-jun phosphorylation (JNK [1]; 40 μM, RNAi directed against HSP70)	AdNRG-induced phosphorylation of GST-c-Jun (JNK [1]; 40 μM, control siRNA)	expression of the GST-c-Jun fusion construct (JNK [1])	HSP25 and HSP70 mRNA levels (HSP70, HSP25, HSP90 mRNA)	HSP90 or actin mRNA levels (HSP70, HSP25, HSP90 mRNA)	effect on JNK activity in vitro (JNK [2])
NS(=O)(=O)c1nn2cc(-c3ccc(N4CCOCC4)cc3)nc2s1 [Compound 2]	almost completely lost	strongly inhibited	without altering			
NS(=O)(=O)c1nn2cc(-c3ccccc3)nc2s1 [Compound 1]			significantly increased	increased levels	no effect	no effect
